Data as given in US6303761A, “Triaminepentaacetic acid compound and paramagnetic metal complex prepared from using the compound as ligand” (Department of Health The Executive Yuan, Republic of China, priority 1999, dated 2001).
Values joined by “and” are separate entries in the source; they are usually repeats but may differ in a detail not shown here. Equal entries are not always repeated. Where two headings read alike, the source gives them in different places.

Key:
[1] = Relaxivity R1 and its pH dependence; conditions: pH 6.3 ± 0.1
[2] = Inner-sphere water molecules (Dy(III)-induced ^17 O-NMR chemical shift, X-ray, deduction); assay type: physicochemical
Description: The chemical shift (d.i.s.) of the Dy(III)-induced ^17 O is determined by ^17 O-NMR. The relationship between the Dy(III) complex concentration and d.i.s. is shown in equation (14)
d.i.s.=qΔ[Dy(ligand)n ](H2 O)q /[H2 O] (14)
The slope of equation (14) is qΔ/[H2 O], and q refers to the inner-sphere water molecule. […] It is known that Dy(III) can bind with eight water molecules at low concentration, and q is in a linear relationship with the slope.

[3] = cited from earlier work; for LD50: in vivo
[4] = assay type: physicochemical; conditions: pH 7.4, plasma concentrations of Ca^2+, Cu^2+ and Zn^2+
[5] = cited from earlier work
[6] = Thermodynamic and conditional stability constants of the Ca^2+ complexes (potentiometric titration, program BEST); assay type: physicochemical; conditions: 25.0 ± 0.1° C., aqueous Me4 NNO3, I = 0.10 mol dm^-3
Description: (§1) The pH electrode was calibrated using two standard buffer solutions with pH 7.0±0.05 and pH 4.0±0.05 respectively. The ionic strength was 0.10 mol dm^-3 Me4 NNO3 ((CH3)4 NNO3). […] The titrant used was 0.1 mol dm^-3 NaOH with a titration amount of 0.005 ml/time.
(§2) (1) Direct Potentiometric Titration: The metal ion and ligand is mixed in 1:1 molar ratio.
(§3) (2) Ligand-ligand Competition Titration: The metal ion, ligand, and EDTA is mixed in 1:1:1 molar ratio.
(§4) M: metal ion, L: organic ligand, ML: metal complex The conditional stability constant is defined by equation (2): [formula]
(§5) The relationship between the conditional stability constant and the thermodynamic stability constant is defined by equation (3): [formula]
(§6) K2^H [H^+ ]^2 + . . . }^-1 =KthermαH

[7] = Selectivity constant of the ligand for Gd^3+ over Ca^2+; assay type: physicochemical
[8] = Protonation constants of the organic ligands (potentiometric titration, program PKAS); assay type: physicochemical; conditions: for pKa: aqueous me4nno3, 25.0 ± 0.1° C., aqueous Me4 NNO3, I = 0.10 mol dm^-3
Description: The ionic strength was 0.10 mol dm^-3 Me4 NNO3 ((CH3)4 NNO3). […] The titrant used was 0.1 mol dm^-3 NaOH with a titration amount of 0.005 ml/time.

[9] = Species distribution of the ligands at various pH values (SPE, SPEPLOT); assay type: physicochemical; conditions: 7.0×10^-3 mol dm^-3 system
Source text: The average difference between observed and calculated -log[H^+ ] was <0.04 throughout all titrations.
When pH=7.0, the concentration of [H2 L]^3- is the maximum (97.5%). In the pH 3-5 range, the dominant species is the third protonated species [H3 L]^2-. When pH=3.7, the concentration of [H3 L]^2- is the maximum (87.75%). […] When pH=9.8, the concentration of [HL]^4- is the maximum (77.5%). In the pH 2-3 range, the dominant species is the fourth protonated species [H4 L]^-. When pH=2.3, the concentration of [H4 L]^- is the maximum (60.9%). In the pH range greater than 11, the dominant species is the deprotonated species [L]^5-.
When pH=2.7, the concentration of [H4 L]^- is the maximum (55.9%). In the pH 3.5-7 range, the dominant species is the third protonated species [H3 L]^2-. When pH=5, the concentration of [H3 L]^2- is the maximum (97.7%). In the pH 7-9 range, the dominant species is the second protonated species [H2 L]^3-. When pH=8.1, the concentration of [H2 L]^3- is the maximum (86.5%). […] When pH=9.9, the concentration of [HL]^4- is the maximum (71.6%). In the pH range greater than 12, the dominant species is the deprotonated species [L]^5-. In the pH range less than 2, the dominant species is the totally protonated species [H5 L].
When pH=2.8, the concentration of [H4 L]^- is the maximum (45.9%). In the pH 3.5-7.5 range, the dominant species is the third protonated species [H3 L]^2-. When pH=5.2, the concentration of [H3 L]^2- is the maximum (99.0%). In the pH 8-9.5 range, the dominant species is the second protonated species [H2 L]^3-. When pH=8.6, the concentration of [H2 L]^3- is the maximum (78.8%). In the pH 9.5-11 range, the dominant species is the first protonated species [HL]^4-. When pH=10.1, the concentration of [HL]^4- is the maximum (67.2%). In the pH range greater than 12, the dominant species is the deprotonated species [L]^5-. In the pH range less than 2, the dominant species is the totally protonated species [H5 L].

[10] = Thermodynamic and conditional stability constants of the Zn^2+ complexes (potentiometric titration, program BEST); assay type: physicochemical; conditions: 25.0 ± 0.1° C., aqueous Me4 NNO3, I = 0.10 mol dm^-3
Description: as §1, §2, §3, §4, §5, §6

pM value, Ca^2+ = conditions: pH 7.4, TL 1.1×10^-5, TM 1.0×10^-6 mol dm^-3
pM value, Zn^2+ = conditions: pH 7.4, TL 1.1×10^-5, TM 1.0×10^-6 mol dm^-3
pM value, Cu^2+ = conditions: pH 7.4, TL 1.1×10^-5, TM 1.0×10^-6 mol dm^-3
[11] = Thermodynamic and conditional stability constants of the Cu^2+ complexes (potentiometric titration, program BEST); assay type: physicochemical; conditions: 25.0 ± 0.1° C., aqueous Me4 NNO3, I = 0.10 mol dm^-3
Description: as §1, §2, §3, §4, §5, §6

pM value, Gd^3+ = conditions: pH 7.4, TL 1.1×10^-5, TM 1.0×10^-6 mol dm^-3
[12] = read-out: first protonation constant log K1^H, [HL]/[L][H]
[13] = read-out: fourth protonation constant log K4^H, [H4 L]/[H3 L][H]
[14] = read-out: second protonation constant log K2^H, [H2 L]/[HL][H]
[15] = read-out: third protonation constant log K3^H, [H3 L]/[H2 L][H]
[16] = 25.0 ± 0.1° C., aqueous Me4 NNO3, I = 0.10 mol dm^-3

## CNC(=O)CN(CCN(CCN(CC(=O)[O-])CC(=O)NC)CC(=O)[O-])CC(=O)[O-].[Gd+3] [[Gd(DTPA-BMA)], diethylenetriamine pentaacetic acid bis(methylamide)-gadolinium(III)]
[1]
  Relaxivity R1: 3.74 dm^3 mmol^-1 s^-1 and 3.74 ± 0.05 dm^3 mmol^-1 s^-1
[2]; X-ray single crystal analysis
  inner-sphere water molecule by X-ray single crystal analysis: one
pH 4.0
  conditional stability constant (log Kcond): 11.25
pH 7.4
  stability constant under physiological conditions (pH 7.4): 16.95
[3]
  LD50: 14.8 mmol/kg
[4]
  modified selectivity constant log K sel': 9.03

## [Cl][Dy]([Cl])[Cl] [DyCl3]
[2]; ^17 O-NMR, FIG. 11
  slope of d.i.s. versus Dy(III) complex concentration: -445.6

## O=C([O-])CN1CCN(CC(=O)[O-])CCN(CC(=O)[O-])CCN(CC(=O)[O-])CC1.[Dy+3] [[Dy(DOTA)]^-]
[2]; Dy(III)-induced ^17 O-NMR shift
  q (inner-sphere water): 0.8
[2]; ^17 O-NMR
  inner-sphere water molecules: only one

## O=C(O)CN1CCCN(CC(=O)O)CCN(CC(=O)O)CCN(CC(=O)O)CCN(CC(=O)O)CCCN(CC(=O)O)CCN(CC(=O)O)CCN(CC(=O)O)CC1 [H8 HEC, 1,4,7,10,14,17,20,23-octaazacyclohexacosane-1,4,7,10,14,17,20,23-octaacetic acid]
[5]
  water solubility of the bimetallic lanthanide complex: higher water solubility

## O=C(O)CN(CCCN(CC(=O)O)CC(=O)O)CCCN(CC(=O)O)CC(=O)O [TTRA, 3,7,11-tri(carboxymethyl)-3,7,11-triazatridecanedioic acid]
[6]
  log K [CaHL]/[CaL][H]: 8.02
  log K [CaL]/[Ca][L]: 13.52
[7]
  selectivity constant log K(Gd/Ca): 2.37
[8]
  basicity, Σ PKa: 29.85
[8]; [12]
  pKa: 10.6
[8]; [13]
  pKa: 3.1
[8]; [14]
  pKa: 9.12
[8]; [15]
  pKa: 7
[16]
  log K [GdHL]/[GdL][H]: 5.95
  log K [GdL]/[Gd][L]: 15.89
pH 7.4
  conditional stability constant log KGdL': 10.93
[4]
  modified selectivity constant log K sel': 2.64
[9]
  maximum concentration of first protonated species [HL]^4-: 71.6%
  maximum concentration of fourth protonated species [H4 L]^-: 55.9%
  maximum concentration of second protonated species [H2 L]^3-: 86.5%
  maximum concentration of third protonated species [H3 L]^2-: 97.7%
  pH of maximum concentration of [H2 L]^3-: 8.1 pH
  pH of maximum concentration of [H3 L]^2-: 5 pH
  pH of maximum concentration of [H4 L]^-: 2.7 pH
  pH of maximum concentration of [HL]^4-: 9.9 pH
  pH range in which [H2 L]^3- is dominant: 7-9 pH
  pH range in which [H3 L]^2- is dominant: 3.5-7 pH
  pH range in which [H4 L]^- is dominant: 2-3.5 pH
  pH range in which [HL]^4- is dominant: 9.5-10.5 pH
  pH range in which deprotonated species [L]^5- is dominant: greater than 12 pH
  pH range in which totally protonated species [H5 L] is dominant: less than 2 pH
[10]
  log K [ZnHL]/[ZnL][H]: 4.15
  log K [ZnL]/[Zn][L]: 19.37
pM value, Ca^2+
  pM (Ca^2+): 8.20
pM value, Zn^2+
  pM (Zn^2+): 13.67
pM value, Cu^2+
  pM (Cu^2+): 13.12
[11]
  log K [CuHL]/[CuL][H]: 8.68
  log K [CuL]/[Cu][L]: 17.92
pM value, Gd^3+
  pM (Gd^3+): 9.80

## O=C(O)CN1CCN(CC(=O)O)CCN(CC(=O)O)CCN(CC(=O)O)CCN(CC(=O)O)CCN(CC(=O)O)CCN(CC(=O)O)CCN(CC(=O)O)CC1 [H8 OTEC, 1,4,7,10,13,16,19,22-octaazacyclotetracosane-1,4,7,10,13,16,19,22-octaacetic acid]
[5]
  water solubility of the bimetallic lanthanide complex: higher water solubility

## [Cl][Gd]([Cl])[Cl] [GdCl3, gadolinium chloride]
[3]; intravenously injected to animal bodies
  LD50, intravenous, animal: 0.3 to 0.5 mmol/kg

## N,N-bis(2-pyridylmethyl)diethylenetriamine-N,N',N"-triacetate-gadolinium(III) [[Gd(DTPA-BP)]]
[3]
  LD50: 3.2 mmol/kg

## O=C(O)CN(CCCCN(CC(=O)O)CC(=O)O)CCCN(CC(=O)O)CC(=O)O [TTEA, 3,7,12-tri(carboxymethyl)-3,7,12-triazatetradecanedioic acid]
[6]
  log K [CaHL]/[CaL][H]: 8.2
  log K [CaL]/[Ca][L]: 13.48
[8]
  basicity, Σ PKa: 30.90
[8]; [12]
  pKa: 10.7
[8]; [13]
  pKa: 3.04
[8]; [14]
  pKa: 9.46
[8]; [15]
  pKa: 7.71
other
  complexation with metal ions, in words: very difficult to complex with metal ions
[9]
  maximum concentration of first protonated species [HL]^4-: 67.2%
  maximum concentration of fourth protonated species [H4 L]^-: 45.9%
  maximum concentration of second protonated species [H2 L]^3-: 78.8%
  maximum concentration of third protonated species [H3 L]^2-: 99.0%
  pH of maximum concentration of [H2 L]^3-: 8.6 pH
  pH of maximum concentration of [H3 L]^2-: 5.2 pH
  pH of maximum concentration of [H4 L]^-: 2.8 pH
  pH of maximum concentration of [HL]^4-: 10.1 pH
  pH range in which [H2 L]^3- is dominant: 8-9.5 pH
  pH range in which [H3 L]^2- is dominant: 3.5-7.5 pH
  pH range in which [H4 L]^- is dominant: 2.5-3.5 pH
  pH range in which [HL]^4- is dominant: 9.5-11 pH
  pH range in which deprotonated species [L]^5- is dominant: greater than 12 pH
  pH range in which totally protonated species [H5 L] is dominant: less than 2 pH
[10]
  log K [ZnHL]/[ZnL][H]: 4.7
  log K [ZnL]/[Zn][L]: 19.91
pM value, Ca^2+
  pM (Ca^2+): 7.64
pM value, Zn^2+
  pM (Zn^2+): 13.08
pM value, Cu^2+
  pM (Cu^2+): 12.63
[11]
  log K [CuHL]/[CuL][H]: 9.5
  log K [CuL]/[Cu][L]: 17.33

## O=C(O)CN(CCN(CC(=O)O)CC(=O)O)CCN(CC(=O)O)CC(=O)O [DTPA, diethylenetriaminepentaacetic acid, reference compound]
pH 7.4
  conditional stability constant log KGdL': 18.14
pM value, Ca^2+
  pM (Ca^2+): 5.45
pM value, Zn^2+
  pM (Zn^2+): 13.39
pM value, Cu^2+
  pM (Cu^2+): 16.06
pM value, Gd^3+
  pM (Gd^3+): 17.14
